Laboratory results published in patent US20190159450A1, “PYRIDINE-BASED COMPOUND INCLUDING ISOXAZOLINE RING AND USE THEREOF AS HERBICIDE” (MOGHU RESEARCH CENTER LTD., priority 2016, published 2019).

Key:
Type in all cases: in vivo
maize [1] = assay: Herbicidal activity test, pre-weeds emergence treatment (crop damage); conditions: assessed 2 to 3 weeks after spraying, scale 0-10 (0: no effect, 10: complete death)
Method in brief: (§1)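 Sow seeds in 1:1 sandy loam/mixed soil and water them, then one day later spray compound (acetone, diluted with equal 0.1% Tween 20) at 200 g/ha in 1000 L/ha. Keep the pots in a greenhouse (25–30 °C day, 15–25 °C night) and rate damage 0–10 after 2–3 weeks.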

rice [2] = assay: as above; conditions: assessed 2 to 3 weeks after spraying, scale 0-10 (0: no effect, 10: complete death)
Method in brief: as §1

wheat [3] = assay: as above; conditions: assessed 2 to 3 weeks after spraying, scale 0-10 (0: no effect, 10: complete death)
Method in brief: as §1

[4] = system: Abutilon theophrasti Medicus; assay: Herbicidal activity test, pre-weeds emergence treatment; conditions: assessed 2 to 3 weeks after spraying, scale 0-10 (0: no effect, 10: complete death)
Method in brief: as §1

Aeschynomene indica [5] = assay: as above; conditions: assessed 2 to 3 weeks after spraying, scale 0-10 (0: no effect, 10: complete death)
Method in brief: as §1

Quamoclit pennata [6] = assay: as above; conditions: assessed 2 to 3 weeks after spraying, scale 0-10 (0: no effect, 10: complete death)
Method in brief: as §1

Xanthium strumarium [7] = assay: as above; conditions: assessed 2 to 3 weeks after spraying, scale 0-10 (0: no effect, 10: complete death)
Method in brief: as §1

maize [8] = assay: Herbicidal activity test, post-weeds emergence treatment (crop damage); conditions: assessed after 2 to 3 weeks, 0: no effect, 10: complete death
Method in brief: (§2)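 Weeds and crops grown in sandy loam/mixed soil pots to about third-leaf stage (~2 weeks), then track-sprayed at 1000 L/ha with compound in acetone/0.1% Tween 20; dose 200 g/ha on crops, 50 g/ha on weeds. Greenhouse 25-30 °C day, 15-25 °C night; injury scored 0-10 (10 = complete death) after 2-3 weeks.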

rice [9] = assay: as above; conditions: assessed after 2 to 3 weeks, 0: no effect, 10: complete death
Method in brief: as §2

wheat [10] = assay: as above; conditions: assessed after 2 to 3 weeks, 0: no effect, 10: complete death
Method in brief: as §2

[11] = system: Abutilon theophrasti Medicus; assay: Herbicidal activity test, post-weeds emergence treatment; conditions: assessed after 2 to 3 weeks, 0: no effect, 10: complete death
Method in brief: (§3)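 Crops and weeds were grown in 1:1 sandy loam/mixed soil to roughly third-leaf stage (about 2 weeks), then track-sprayed at 1000 L/ha with compound in acetone plus an equal volume of 0.1% Tween 20 at 200 g/ha (one weed test used 50 g/ha). Injury was scored 0–10 after 2–3 weeks.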

Aeschynomene indica [12] = assay: as above; conditions: assessed after 2 to 3 weeks, 0: no effect, 10: complete death
Method in brief: as §3

Quamoclit pennata [13] = assay: as above; conditions: assessed after 2 to 3 weeks, 0: no effect, 10: complete death
Method in brief: as §3

Xanthium strumarium [14] = assay: as above; conditions: assessed after 2 to 3 weeks, 0: no effect, 10: complete death
Method in brief: as §3

[15] = spray amount 200 g/ha for crops, Table 6
[16] = spray amount 50 g/ha for weeds, Table 6

Nc1c(Cl)c(F)nc(OCC(=O)O)c1Cl [fluroxypyr, reference compound]
PRE ZEAMX (maize), damage score (maize [1]; Table 3, 200 g/ha): 3
PRE ZEAMX (maize), damage score (maize [1]; Table 4, 200 g/ha): 4
PRE ORYSA (rice), damage score (rice [2]; Table 3, 200 g/ha): 8
PRE ORYSA (rice), damage score (rice [2]; Table 4, 200 g/ha): 8
PRE TRZAW (wheat), damage score (wheat [3]; Table 3, 200 g/ha): 3
PRE TRZAW (wheat), damage score (wheat [3]; Table 4, 200 g/ha): 3
PRE ABUTH (Abutilon theophrasti Medicus), efficacy score ([4]; Table 3, 200 g/ha): 7
PRE ABUTH (Abutilon theophrasti Medicus), efficacy score ([4]; Table 4, 200 g/ha): 7
PRE AESIN (Aeschynomene indica), efficacy score (Aeschynomene indica [5]; Table 3, 200 g/ha): 9
PRE AESIN (Aeschynomene indica), efficacy score (Aeschynomene indica [5]; Table 4, 200 g/ha): 10
PRE IPOAN (Quamoclit pennata), efficacy score (Quamoclit pennata [6]; Table 3, 200 g/ha): 9
PRE IPOAN (Quamoclit pennata), efficacy score (Quamoclit pennata [6]; Table 4, 200 g/ha): 9
PRE XANST (Xanthium strumarium), efficacy score (Xanthium strumarium [7]; Table 3, 200 g/ha): 9
PRE XANST (Xanthium strumarium), efficacy score (Xanthium strumarium [7]; Table 4, 200 g/ha): 9
ZEAMX (maize) damage, scale of 0-10 (maize [8]; [15]): 3
ZEAMX (maize) damage, scale of 0-10 (maize [8]; spray amount 200 g/ha, Table 5): 0
ORYSA (rice) damage, scale of 0-10 (rice [9]; [15]): 3
ORYSA (rice) damage, scale of 0-10 (rice [9]; spray amount 200 g/ha, Table 5): 4
TRZAW (wheat) damage, scale of 0-10 (wheat [10]; [15]): 0
TRZAW (wheat) damage, scale of 0-10 (wheat [10]; spray amount 200 g/ha, Table 5): 3
ABUTH (Abutilon theophrasti Medicus) herbicidal efficacy, scale of 0-10 [11, 16]: 7
ABUTH (Abutilon theophrasti Medicus) herbicidal efficacy, scale of 0-10 ([11]; spray amount 200 g/ha, Table 5): 10
AESIN (Aeschynomene indica) herbicidal efficacy, scale of 0-10 (Aeschynomene indica [12]; [16]): 3
AESIN (Aeschynomene indica) herbicidal efficacy, scale of 0-10 (Aeschynomene indica [12]; spray amount 200 g/ha, Table 5): 10
IPOAN (Quamoclit pennata) herbicidal efficacy, scale of 0-10 (Quamoclit pennata [13]; [16]): 6
IPOAN (Quamoclit pennata) herbicidal efficacy, scale of 0-10 (Quamoclit pennata [13]; spray amount 200 g/ha, Table 5): 8
XANST (Xanthium strumarium) herbicidal efficacy, scale of 0-10 (Xanthium strumarium [14]; [16]): 10
XANST (Xanthium strumarium) herbicidal efficacy, scale of 0-10 (Xanthium strumarium [14]; spray amount 200 g/ha, Table 5): 10
